Patent publication US10213415B2, “Compounds as opioid receptor modulators” (JANSSEN PHARMACEUTICA NV, priority 2004, dated 2019)

Key:
[1] = biological target: T1, human delta subtype 2 opioid receptor (Homo sapiens, UniProt P41143); assay: Human Delta Opioid Receptor Binding Assay (CHO membranes, 3H-Naltrindole); conditions: read-out: hKi δ
T1 construct: purchased Perkin Elmer RBHODM400UA; host or cells: Chinese Hamster Ovary cells (recombinant expression)
Description: This assay is designed to test the ability of a compound to interfere with the binding of tritiated Naltrindole to the human delta subtype 2 opioid receptor. Membranes from Chinese Hamster Ovary cells expressing the human delta subtype 2 opioid receptor (Perkin Elmer #RBHODM400UA) are homogenized in assay buffer (50 mM Tris, pH 7.5 with 5 mM MgCl2) using a glass tissue grinder, Teflon pestle and a Steadfast Stirrer (Fisher Scientific). The concentration of membranes is adjusted to 100 μg/mL in assay buffer and 100 μL is dispensed into each well of the assay plate, a 96 well round bottom polypropylene plate. Compounds to be tested are solubilized in DMSO (Pierce), 10 mM, then diluted in assay buffer to 6× the desired final concentration. The ligand, ^3H-Naltrindole (Perkin Elmer #NET-1065) is also diluted in assay buffer to 6 nM. In a second 96 well round bottom polypropylene plate, known as the premix plate, 60 μL of the 6× compound is combined with 60 μL of 6 nM ^3H-Naltrindole. From this premix plate 50 μL is transferred to the assay plate containing the membranes, in duplicate. The assay plate is incubated for 30 min at room temperature. A GF/C 96 well filter plate (Perkin Elmer #6005174) is pretreated with 0.3% polyethylenimine for 30 min. The contents of the assay plate are filtered through the filter plate using a Packard Filtermate Harvester, and washed 3 times with 0.9% saline that is 4° C. The filter plate is dried, the underside sealed, and 30 μL Microscint20 (Packard #6013621) added to each well. A Topcount-NXT Microplate Scintillation Counter (Packard) is used to measure emitted energies in the range of 2.9 to 35 KeV. Results are compared to maximum binding, wells receiving no inhibitors. Nonspecific binding is determined in the presence of 1 μM unlabelled Naltrindole (Sigma #N115).

[2] = biological target: T2, human mu opioid receptor (Homo sapiens, UniProt P35372); assay: Human Mu Opioid Receptor Binding Assay (CHO membranes, 3H-Damgo); conditions: read-out: hKi μ
T2 construct: purchased Perkin Elmer RBHOMM400UA; host or cells: Chinese Hamster Ovary cells (recombinant expression)
Description: Membranes from Chinese Hamster Ovary cells expressing the human […] opioid receptor (Perkin Elmer #RBHOMM400UA) are homogenized in assay buffer (50 mM Tris, pH 7.5 with 5 mM MgCl2) using a glass tissue grinder, Teflon pestle and a Steadfast Stirrer (Fisher Scientific). The concentration of membranes is adjusted to 300 μg/mL in assay buffer and 100 μL is dispensed into each well of the assay plate, a 96 well round bottom polypropylene plate. Compounds to be tested are solubilized in DMSO (Pierce), 10 mM, then diluted in assay buffer to 6× the desired final concentration. The ligand, ^3H-Damgo (Perkin Elmer #NET-902) is also diluted in assay buffer to 3.6 nM. In a second 96 well round bottom polypropylene plate, known as the premix plate, 60 μL of the 6× compound is combined with 60 μL of 3.6 nM ^3H-Damgo. From this premix plate 50 μL is transferred to the assay plate containing the membranes, in duplicate. The assay plate is incubated for 2 h at room temperature. A GF/C 96 well filter plate (Perkin Elmer #6005174) is pretreated with 0.3% polyethylenimine for 30 min. The contents of the assay plate are filtered through the filter plate using a Packard Filtermate Harvester, and washed 3 times with 0.9% saline that is 4° C. The filter plate is dried, the underside sealed, and 30 μL Microscint20 (Packard #6013621) added to each well. A Topcount-NXT Microplate Scintillation Counter (Packard) is used to measure emitted energies in the range of 2.9 to 35 KeV. […] Nonspecific binding is determined in the presence of 1 μM unlabelled Damgo (Tocris #1171).

T1 sequence (P41143 whole entry): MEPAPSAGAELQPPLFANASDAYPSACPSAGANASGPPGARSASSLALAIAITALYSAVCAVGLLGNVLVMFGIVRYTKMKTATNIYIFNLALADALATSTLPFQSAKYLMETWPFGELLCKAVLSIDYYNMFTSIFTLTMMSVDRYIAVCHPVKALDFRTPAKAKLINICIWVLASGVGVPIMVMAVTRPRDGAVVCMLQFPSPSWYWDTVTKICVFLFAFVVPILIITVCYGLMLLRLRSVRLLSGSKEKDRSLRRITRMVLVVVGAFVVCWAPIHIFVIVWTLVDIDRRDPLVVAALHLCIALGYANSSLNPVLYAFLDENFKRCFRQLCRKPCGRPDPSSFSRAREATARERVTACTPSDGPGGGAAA
T2 sequence (P35372 whole entry): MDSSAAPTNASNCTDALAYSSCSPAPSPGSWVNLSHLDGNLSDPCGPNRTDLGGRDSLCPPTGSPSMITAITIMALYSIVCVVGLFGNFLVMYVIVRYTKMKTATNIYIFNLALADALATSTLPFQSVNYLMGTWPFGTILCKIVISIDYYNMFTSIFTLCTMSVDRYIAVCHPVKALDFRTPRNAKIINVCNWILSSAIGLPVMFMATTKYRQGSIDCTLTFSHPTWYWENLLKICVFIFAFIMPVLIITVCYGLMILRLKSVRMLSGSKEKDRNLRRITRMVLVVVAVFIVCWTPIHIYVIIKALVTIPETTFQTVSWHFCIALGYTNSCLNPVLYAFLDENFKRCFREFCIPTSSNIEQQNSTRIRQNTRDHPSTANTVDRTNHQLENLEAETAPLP

Structure (SMILES)	Ki [1] [nM]	Ki [2] [nM]
COC(=O)c1cccc(CN(C(=O)[C@@H](N)Cc2c(C)cc(O)cc2C)[C@@H](C)c2nc(-c3ccccc3)c[nH]2)c1 [Cpd 52]	66	12.1
Cc1cc(O)cc(C)c1C[C@H](N)C(=O)N(CC1CCN(C(=O)OCc2ccccc2)CC1)[C@@H](C)c1nc(-c2ccccc2)c[nH]1 [Cpd 53]	96	13.1
Cc1cc(O)cc(C)c1C[C@H](N)C(=O)N(Cc1ccco1)[C@@H](C)c1nc(-c2ccccc2)c[nH]1 [Cpd 54]	172	1.1
Cc1cc(O)cc(C)c1C[C@H](N)C(=O)N(CC1CCCCC1)[C@@H](C)c1nc(-c2ccccc2)c[nH]1 [Cpd 56]	225	65.3
Cc1cc(C(N)=O)cc(C)c1C[C@H](N)C(=O)N(Cc1ccccc1)[C@@H](C)c1nc(-c2cccc(F)c2)c[nH]1 [Cpd 59]	120	5.1
Cc1cc(O)cc(C)c1C[C@H](N)C(=O)N(Cc1nc(-c2cccc(C#N)c2)c(C)[nH]1)C(C)C [Cpd 60]	114	2
Cc1cc(O)cc(C)c1C[C@H](N)C(=O)N(Cc1nc(-c2cc(F)ccc2F)c(C)[nH]1)C(C)C [Cpd 61]	243	3
Cc1cc(O)cc(C)c1C[C@H](N)C(=O)N(Cc1nc(-c2ccc(S(C)(=O)=O)cc2)c(C)[nH]1)C(C)C [Cpd 62]	69	2.4
Cc1cc(O)cc(C)c1C[C@H](N)C(=O)N(C(C)C)[C@H](CO)c1nc(-c2ccccc2)c[nH]1 [Cpd 63]	473	58
Cc1cc(C(N)=O)cc(C)c1C[C@H](N)C(=O)N(Cc1ccccc1)[C@@H](COCc1ccccc1)c1nc(-c2ccccc2)c[nH]1 [Cpd 64]	1110	117
Cc1cc(O)cc(C)c1C[C@H](N)C(=O)N(Cc1nc(Br)c(C)[nH]1)C(C)C [Cpd 65]	517	0.36
Cc1cc(O)cc(C)c1C[C@H](N)C(=O)N(Cc1nc(-c2ccc(N(C)C)cc2)c(C)[nH]1)C(C)C [Cpd 66]	550	6.5
Cc1cc(O)cc(C)c1C[C@H](N)C(=O)N(Cc1nc(-c2cccc(C(=O)N(C)C)c2)c(C)[nH]1)C(C)C [Cpd 67]	438	4.5
Cc1cc(O)cc(C)c1C[C@H](N)C(=O)N(Cc1nc(-c2cccc(O)c2)c(C)[nH]1)C(C)C [Cpd 68]	59	0.6
Cc1cc(O)cc(C)c1C[C@H](N)C(=O)N(Cc1nc(-c2ccc(C(N)=O)cc2)c(C)[nH]1)C(C)C [Cpd 69]	272	4.4
Cc1cc(O)cc(C)c1C[C@H](N)C(=O)N(Cc1nc(-c2cccc(Cl)c2)c(C)[nH]1)C(C)C [Cpd 70]	85	2.6
Cc1cc(O)cc(C)c1C[C@H](N)C(=O)N(Cc1nc(-c2ccc(F)cc2F)c(C)[nH]1)C(C)C [Cpd 71]	102	0.57
Cc1cc(O)cc(C)c1C[C@H](N)C(=O)N(Cc1nc(-c2cccc(S(C)(=O)=O)c2)c(C)[nH]1)C(C)C [Cpd 72]	71	1.03
Cc1cc(O)cc(C)c1C[C@H](N)C(=O)N(Cc1nc(-c2cccc(C(N)=O)c2)c(C)[nH]1)C(C)C [Cpd 73]	151	1.9
Cc1cc(C(N)=O)cc(C)c1C[C@H](N)C(=O)N(Cc1ccccc1)[C@@H](C)c1nc(-c2ccc(C(F)(F)F)cc2)c(C)[nH]1 [Cpd 74]	63	9.8
Cc1cc(C(N)=O)cc(C)c1C[C@H](N)C(=O)N(Cc1ccccc1)[C@@H](C)c1nc(-c2ccc(F)cc2)c[nH]1 [Cpd 76]	43.1	1.6
Cc1cc(O)cc(C)c1C[C@H](N)C(=O)N(Cc1ccc(N(C)C)cc1)[C@@H](C)c1nc(-c2ccccc2)cn1C [Cpd 77]	13.5	1.8
Cc1cc(O)cc(C)c1C[C@H](N)C(=O)N(Cc1ccc(O)cc1)[C@@H](C)c1nc(-c2ccccc2)c[nH]1 [Cpd 81]	15.7	1.7

Structure (SMILES)	Ki [1] [nM]	Ki [2] [nM]
Cc1cc(O)cc(C)c1C[C@H](N)C(=O)N(C(C)C)[C@H](C)c1nc(-c2ccc(F)cc2)c[nH]1 [Cpd 82]	46	2.39
Cc1cc(O)cc(C)c1CC(N)C(=O)N(Cc1ccccc1)C(C)c1nc(-c2ccc(F)cc2)c[nH]1 (stereo not drawn) [Cpd 83]	48	4.67
Cc1cc(O)cc(C)c1C[C@H](N)C(=O)N(C(C)C)[C@@H](C)c1nc(-c2ccc(F)cc2)c[nH]1 [Cpd 84]	9.6	1.1
Cc1cc(C(N)=O)cc(C)c1C[C@H](N)C(=O)N(Cc1nc(-c2ccccc2)c[nH]1)C(C)C [Cpd 86]	400	1
CC(=O)Oc1ccc(CN(C(=O)[C@@H](N)Cc2c(C)cc(O)cc2C)[C@@H](C)c2nc(-c3ccccc3)c[nH]2)cc1 [Cpd 88]	16.2	5.8
COc1ccccc1CN(C(=O)[C@@H](N)Cc1c(C)cc(O)cc1C)[C@@H](C)c1nc(-c2ccccc2)c[nH]1 [Cpd 96]	14.6	9.7
Cc1cc(O)cc(C)c1C[C@H](N)C(=O)N(Cc1cccc(Oc2ccccc2)c1)[C@@H](C)c1nc(-c2ccccc2)c[nH]1 [Cpd 98]	54	48
Cc1cc(O)cc(C)c1C[C@H](N)C(=O)N(Cc1cccc2ccccc12)[C@@H](C)c1nc(-c2ccccc2)c[nH]1 [Cpd 99]	19.3	16
Cc1cc(O)cc(C)c1C[C@H](N)C(=O)N(Cc1ccc2ccccc2c1)[C@@H](C)c1nc(-c2ccccc2)c[nH]1 [Cpd 100]	88	20
Cc1cc(O)cc(C)c1C[C@H](N)C(=O)N(Cc1cccc(Br)c1)[C@@H](C)c1nc(-c2ccccc2)c[nH]1 [Cpd 101]	47	24
Cc1cc(O)cc(C)c1C[C@H](N)C(=O)N(Cc1ccccc1)[C@@H](CC(C)C)c1nc(-c2ccccc2)c[nH]1 [Cpd 104]	484	100
Cc1cc(O)cc(C)c1C[C@H](N)C(=O)N(Cc1ccccc1)[C@@H](Cc1ccccc1)c1nc(-c2ccccc2)c[nH]1 [Cpd 105]	742	410
Cc1cc(O)cc(C)c1C[C@H](N)C(=O)N(Cc1ccccc1)[C@H](c1nc(-c2ccccc2)c[nH]1)C(C)C [Cpd 106]	279	150
Cc1cc(C(N)=O)cc(C)c1C[C@H](N)C(=O)N(CCCc1ccccc1)[C@@H](C)c1nc(-c2ccccc2)c[nH]1 [Cpd 108]	43.3	23.5
Cc1cc(C(N)=O)cc(C)c1C[C@H](N)C(=O)N(CCc1ccccc1)[C@@H](C)c1nc(-c2ccccc2)c[nH]1 [Cpd 109]	77	8.2
Cc1cc(C(N)=O)cc(C)c1C[C@H](N)C(=O)N(CCc1ccccc1)[C@H](C)c1nc(-c2ccccc2)c[nH]1 [Cpd 110]	1400	191
Cc1cc(O)cc(C)c1C[C@H](N)C(=O)N(Cc1nc(-c2ccc(-c3ccccc3)cc2)c(C)[nH]1)C(C)C [Cpd 115]	321	68
Cc1cc(O)cc(C)c1C[C@H](N)C(=O)N(Cc1nc(-c2cccc(F)c2)c(C)[nH]1)C(C)C [Cpd 116]	30.3	0.54
Cc1cc(O)cc(C)c1C[C@H](N)C(=O)N[C@@H](CO)c1nc(-c2ccccc2)c[nH]1 [Cpd 119]	> 10000	185
Cc1cc(O)cc(C)c1C[C@H](N)C(=O)N(Cc1nc(-c2ccccc2-c2ccccc2)c(C)[nH]1)C(C)C [Cpd 145]	267	
Cc1[nH]c(CN(C(=O)[C@@H](N)Cc2ccc(O)cc2)C(C)C)nc1-c1ccsc1 [Cpd 152]	> 10000	
Cc1[nH]c(CN(C(=O)[C@@H](N)Cc2ccc(O)cc2)C(C)C)nc1-c1cccnc1 [Cpd 153]	> 10000	
